Results: patent US9163015B2, “Pyrazolopyridine, pyrarolopyrazine, pyrazolopyrimidine, pyrazolothiophene and pyrazolothiazole compounds as MGLUR4 allosteric potentiators, compositions, and methods of treating neurological dysfunction” (Vanderbilt University, priority 2010, dated 2015)

What follows are compounds tested against human mGluR4 (Homo sapiens (Human), UniProt Q14833) (assay: mGluR4 potentiation assay, CHO cells transfected with human mGluR4, Ca2+-sensitive fluorescent dye, EC20 agonist). Settings: potentiation of mGluR4; table does not state human or rat receptor.
human mGluR4, sequence (Q14833 33-912): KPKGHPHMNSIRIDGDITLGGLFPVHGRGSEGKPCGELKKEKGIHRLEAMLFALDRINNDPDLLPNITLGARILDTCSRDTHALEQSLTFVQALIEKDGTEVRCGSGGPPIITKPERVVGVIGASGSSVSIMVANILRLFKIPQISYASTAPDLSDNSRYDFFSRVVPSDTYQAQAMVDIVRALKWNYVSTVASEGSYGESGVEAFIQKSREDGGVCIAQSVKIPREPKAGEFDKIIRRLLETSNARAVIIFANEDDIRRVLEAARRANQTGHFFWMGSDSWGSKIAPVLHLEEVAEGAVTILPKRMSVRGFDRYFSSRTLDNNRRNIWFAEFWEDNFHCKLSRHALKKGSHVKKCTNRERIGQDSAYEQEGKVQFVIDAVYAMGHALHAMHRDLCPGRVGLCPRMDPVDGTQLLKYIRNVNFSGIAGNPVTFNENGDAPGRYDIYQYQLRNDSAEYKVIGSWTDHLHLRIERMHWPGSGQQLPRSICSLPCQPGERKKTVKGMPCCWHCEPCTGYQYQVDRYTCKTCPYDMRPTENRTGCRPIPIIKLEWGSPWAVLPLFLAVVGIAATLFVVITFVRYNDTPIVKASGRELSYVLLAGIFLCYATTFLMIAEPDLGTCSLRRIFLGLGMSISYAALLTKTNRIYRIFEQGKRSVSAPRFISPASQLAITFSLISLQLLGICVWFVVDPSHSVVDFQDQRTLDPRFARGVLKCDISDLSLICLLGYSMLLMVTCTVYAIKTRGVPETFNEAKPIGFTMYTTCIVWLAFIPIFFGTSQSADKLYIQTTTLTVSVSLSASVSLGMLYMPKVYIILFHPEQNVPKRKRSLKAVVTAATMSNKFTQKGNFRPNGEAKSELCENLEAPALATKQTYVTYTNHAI
Type: cell-based
Experimental: The disclosed compounds and compositions can be evaluated for their ability to act as a potentiator of metabotropic glutamate receptor activity, in particular mGluR4 activity, by any suitable known methodology known in the art. For example, Chinese Hamster Ovary (CHO) cells transfected with human mGluR4 or HEK cells co-transfected with rat mGluR4 and the G-protein regulated Inwardly Rectifying Potassium channel (GIRK) were plated in clear bottom assay plates for assay in a Hamamatsu FDSS Fluorometric Plate Reader. The cells were loaded with either a Ca2+-sensitive fluorescent dye or the thallium responsive dye and the plates were washed and placed into a suitable kinetic plate reader. For human mGluR4 assays, a fluorescence baseline was established for 3-5 seconds, the disclosed compounds were then added to the cells, and the response in cells was measured. Approximately two and a half minutes later, a concentration of mGluR4 orthosteric agonist (e.g. glutamate or L-AP4) eliciting approximately 20% (EC20) of the maximal agonist response was added to the cells, and the response was measured. Two minutes later, a concentration of mGluR4 agonist (e.g. glutamate or L-AP4) eliciting 80% (EC80) of the maximal agonist response was added to the cells, and the response was measured. For rat mGluR4/GIRK experiments, a baseline was established for approximately five seconds, disclosed compounds were added, and either an EC20 or EC80 concentration of agonist was added approximately two and one half minutes later.
The above described assay operated in two modes. In the first mode, a range of concentrations of the disclosed compounds are added to cells, followed by a single fixed concentration of agonist. If the compound acts as a potentiatior, an EC50 value for potentiation and a maximum extent of potentiation by the compound at this concentration of agonist is determined by non-linear curve fitting. If the compound acts as a noncompetitive antagonist, an IC50 value is determined by non-linear curve fitting. In the second mode, several fixed concentrations of the disclosed compounds are added to various wells on a plate, followed by a range in concentrations of agonist for each concentration of disclosed compound. The EC50 values for the agonist at each concentration of compound are determined by non-linear curve fitting. A decrease in the EC50 value of the agonist with increasing concentrations of the sample compound (a leftward shift of the agonist concentration-response curve) is an indication of the degree of mGluR4 potentiation at a given concentration of the sample compound. A decrease in the maximal response of the agonist with increasing concentrations of the sample compounds, with or without a rightward shift in agonist potency, is an indication of the degree of noncompetitive antagonism at mGluR4. The second mode also indicates whether the sample compounds also affect the maximum response to mGluR4 to agonists.

| SMILES | EC50 [nM] |
| --- | --- |
| Fc1cncc(Nc2n[nH]c3cccnc23)c1 [Example 4, N-(5-fluoropyridin-3-yl)-1H-pyrazolo[4,3-b]pyridin-3-amine] | 9180 |
| Fc1ccc(Nc2n[nH]c3cccnc23)cc1F [Example 5, N-(3,4-difluorophenyl)-1H-pyrazolo[4,3-b]pyridin-3-amine] | 644 |
| COc1cc(Nc2n[nH]c3cccnc23)ccc1Cl [Example 6, N-(4-chloro-3-methoxyphenyl)-1H-pyrazolo[4,3-b]pyridin-3-amine] | 1110 |
| COc1ccc(Nc2n[nH]c3cccnc23)cc1OC(F)F [Example 10, N-(3-(difluoromethoxy)-4-methoxyphenyl)-1H-pyrazolo[4,3-b]pyridin-3-amine] | 885 |
| COc1cc(Nc2n[nH]c3cccnc23)ccc1F [Example 11, N-(4-fluoro-3-methoxyphenyl)-1H-pyrazolo[4,3-b]pyridin-3-amine] | 1030 |
| Clc1ccc(Nc2n[nH]c3cccnc23)cn1 [Example 15, N-(6-chloropyridin-3-yl)-1H-pyrazolo[4,3-b]pyridin-3-amine] | 5500 |
| Fc1c(Cl)cccc1Nc1n[nH]c2cccnc12 [Example 17, N-(3-chloro-2-fluorophenyl)-1H-pyrazolo[4,3-b]pyridin-3-amine] | 623 |
| c1ccc(Nc2n[nH]c3cccnc23)cc1 [Example 20, N-phenyl-1H-pyrazolo[4,3-b]pyridin-3-amine] | 1440 |
| N#Cc1ccc(Nc2n[nH]c3cccnc23)cc1Cl [Example 21, 4-((1H-pyrazolo[4,3-b]pyridin-3-yl)amino)-2-chlorobenzonitrile] | 93 |
| FC(F)(F)c1ccc(Nc2n[nH]c3cccnc23)cc1Cl [Example 22, N-(3-chloro-4-(trifluoromethyl)phenyl)-1H-pyrazolo[4,3-b]pyridin-3-amine] | 2150 |
| Clc1cc(Nc2n[nH]c3cccnc23)ccn1 [Example 23, N-(2-chloropyridin-4-yl)-1H-pyrazolo[4,3-b]pyridin-3-amine] | 1490 |
| Clc1cccc(Nc2c[nH]c3cccnc23)c1 [Example 25, N-(3-chlorophenyl)-1H-pyrrolo[3,2-b]pyridin-3-amine] | 6360 |
| Fc1ccc(Nc2n[nH]c3cncnc23)cc1Cl [Example 26, N-(3-chloro-4-fluorophenyl)-1H-pyrazolo[4,3-d]pyrimidin-3-amine] | 3070 |
| Clc1cc(N(c2ncccn2)c2n[nH]c3cccnc23)ccc1Oc1ncccn1 [Example 27, N-(3-chloro-4-(pyrimidin-2-yloxy)phenyl)-N-(pyrimidin-2-yl)-1H-pyrazolo[4,3-b]pyridin-3-amine] | 9070 |
| CC(C)C1CCC(Nc2n[nH]c3cccnc23)CC1 (stereo not drawn) [Example 29, N-(4-isopropylcyclohexyl)-1H-pyrazolo[4,3-b]pyridin-3-amine] | 5220 |
| Clc1cc(Nc2n[nH]c3cccnc23)cnc1N1CCOCC1 [Example 30, N-(5-chloro-6-morpholinopyridin-3-yl)-1H-pyrazolo[4,3-b]pyridin-3-amine] | 2380 |
| Clc1cc(Nc2n[nH]c3cccnc23)cnc1N1CCCC1 [Example 31, N-(5-chloro-6-(pyrrolidin-l-yl)pyridin-3-yl)-1H-pyrazolo[4,3-b]pyridin-3-amine] | 1550 |
| Clc1cncc(Nc2n[nH]c3cccnc23)n1 [Example 32, N-(6-chloropyrazin-2-yl)-1H-pyrazolo[4,3-b]pyridin-3-amine] | 9990 |
| Cc1cncc(Nc2n[nH]c3cccnc23)c1 [Example 33, N-(5-methylpyridin-3-yl)-1H-pyrazolo[4,3-b]pyridin-3-amine] | 7380 |
| CN1C(=O)N(c2ccc(Nc3n[nH]c4cccnc34)cc2Cl)C(=O)C1C(C)(C)C (stereo not drawn) [Example 35, 3-(4-((1H-pyrazolo[4,3-b]pyridin-3-yl)amino)-2-chlorophenyl)-5-(tert-butyl)-1-methylimidazolidine-2,4-dione] | 753 |
| O=C(c1cccc(C(F)(F)F)c1)c1ccc(Nc2n[nH]c3cccnc23)cc1Cl [Example 38, (4-((1H-pyrazolo[4,3-b]pyridin-3-yl)amino)-2-chlorophenyl)(3-(trifluoromethyl)phenyl)methanone] | 3880 |
| c1cnc2c(Nc3cncnc3)n[nH]c2c1 [Example 39, N-(pyrimidin-5-yl)-1H-pyrazolo[4,3-b]pyridin-3-amine] | 8990 |
| c1ccc2ncc(Nc3n[nH]c4cccnc34)cc2c1 [Example 40, N-(1H-pyrazolo[4,3-b]pyridin-3-yl)quinolin-3-amine] | 961 |
| Fc1ccc(Nc2n[nH]c3scnc23)cc1Cl [Example 41, N-(3-chloro-4-fluorophenyl)-1H-pyrazolo[4,3-d]thiazol-3-amine] | 1180 |
| Clc1cc(Nc2n[nH]c3cccnc23)cc(Cl)c1Cl [Example 42, N-(3,4,5-trichlorophenyl)-1H-pyrazolo[4,3-b]pyridin-3-amine] | 721 |
| Cc1ccc(NC(=O)Nc2n[nH]c3cccnc23)cc1C [Example 44, 1-(3,4-dimethylphenyl)-3-(1H-pyrazolo[4,3-b]pyridin-3-yl)urea] | 12800 |
| c1cnc2c(Nc3nccs3)n[nH]c2c1 [Example 45, N-(1H-pyrazolo[4,3-b]pyridin-3-yl)thiazol-2-amine] | 10000 |
| Cc1cc(NC(=O)Nc2n[nH]c3cccnc23)ccc1F [Example 46, 1-(4-fluoro-3-methylphenyl)-3-(1H-pyrazolo[4,3-b]pyridin-3-yl)urea] | 6840 |

Continued by falling EC50, values first:

| EC50 [nM] | SMILES |
| --- | --- |
| 597 | Fc1ncc(Cl)cc1Nc1n[nH]c2cccnc12 [Example 34, N-(5-chloro-2-fluoropyridin-3-yl)-1H-pyrazolo[4,3-b]pyridin-3-amine] |
| 584 | Fc1cccc(Nc2n[nH]c3cccnc23)c1 [Example 12, N-(3-fluorophenyl)-1H-pyrazolo[4,3-b]pyridin-3-amine] |
| 410 | Fc1c(Cl)cc(Nc2n[nH]c3cccnc23)cc1Cl [Example 43, N-(3,5-dichloro-4-fluorophenyl)-1H-pyrazolo[4,3-b]pyridin-3-amine] |
| 353 | Clc1cncc(Nc2n[nH]c3cccnc23)c1 [Example 14, N-(5-chloropyridin-3-yl)-1H-pyrazolo[4,3-b]pyridin-3-amine] |
| 284 | Clc1ccnc(Nc2n[nH]c3cccnc23)c1 [Example 13, N-(4-chloropyridin-2-yl)-1H-pyrazolo[4,3-b]pyridin-3-amine] |
| 282 | COc1ccc(Nc2n[nH]c3cccnc23)cc1Cl [Example 8, N-(3-chloro-4-methoxyphenyl)-1H-pyrazolo[4,3-b]pyridin-3-amine] |
| 254 | FC(F)Oc1cccc(Nc2n[nH]c3cccnc23)c1 [Example 9, N-(3-(difluoromethoxy)phenyl)-1H-pyrazolo[4,3-b]pyridin-3-amine] |
| 217 | Oc1ccc(Nc2n[nH]c3cccnc23)cc1Cl [Example 36, 4-((1H-pyrazolo[4,3-b]pyridin-3-yl)amino)-2-chlorophenol] |
| 177 | Cc1cc(C)cc(Nc2n[nH]c3cccnc23)c1 [Example 37, N-(3,5-dimethylphenyl)-1H-pyrazolo[4,3-b]pyridin-3-amine] |
| 169 | COc1cccc(Nc2n[nH]c3cccnc23)c1 [Example 19, N-(3-methoxyphenyl)-1H-pyrazolo[4,3-b]pyridin-3-amine] |
| 164 | Cc1cc(Nc2n[nH]c3cccnc23)ccc1Cl [Example 7, N-(4-chloro-3-methylphenyl)-1H-pyrazolo[4,3-b]pyridin-3-amine] |
| 156 | Fc1ccc(Nc2n[nH]c3nccnc23)cc1Cl [Example 28, N-(3-chloro-4-fluorophenyl)-1H-pyrazolo[3,4-b]pyrazin-3-amine] |
| 145 | FC(F)(F)c1cccc(Nc2n[nH]c3cccnc23)c1 [Example 3, N-(3-(trifluoromethyl)phenyl)-1H-pyrazolo[4,3-b]pyridin-3-amine] |
| 138 | Clc1cccc(Nc2n[nH]c3cccnc23)c1 [Example 1, N-(3-chlorophenyl)-1H-pyrazolo[4,3-b]pyridin-3-amine] |
| 116 | Fc1ccc(Cl)cc1Nc1n[nH]c2cccnc12 [Example 16, N-(5-chloro-2-fluorophenyl)-1H-pyrazolo[4,3-b]pyridin-3-amine] |
| 116 | Clc1cc(Nc2n[nH]c3cccnc23)ccc1Oc1ncccn1 [Example 24, N-(3-chloro-4-(pyrimidin-2-yloxy)phenyl)-1H-pyrazolo[4,3-b]pyridin-3-amine] |
| 51.4 | Cc1cccc(Nc2n[nH]c3cccnc23)c1 [Example 18, N-(m-tolyl)-1H-pyrazolo[4,3-b]pyridin-3-amine] |
